Measured values as given in ChEMBL document CHEMBL1158794, “A cytotoxic xanthone dimer from the entomopathogenic fungus Aschersonia sp. BCC 8401” (J Nat Prod, 2005).
≈ marks a conversion by molar mass, not a printed value.

Tests used:
KB = experiment: Cytotoxicity against human KB cells by SRB assay; format: functional, cell-based
Vero = experiment: Cytotoxicity against african green monkey Vero cells by SRB assay; format: cell-based; details: Chlorocebus sabaeus
Plasmodium falciparum = experiment: Antiplasmodial activity against multidrug-resistant Plasmodium falciparum K1 by [3H]hypoxanthine uptake; format: functional, organism-based
[1] = Cytotoxicity against human BC cells by SRB assay; format: functional, cell-based
NCI-H187 = experiment: Cytotoxicity against human NCI-H187 cells by SRB assay; format: functional, cell-based

CO[C@H]1CC=C2C(=O)c3c(cc(C)c(-c4c(C)cc5c(c4O)C(=O)C4=CC[C@H](OC)[C@@H](O)[C@]4(C)O5)c3O)O[C@@]2(C)[C@@H]1O [ASCHERXANTHONE A]
IC50 (KB): 1.7 µg/mL (≈ 2.94 µM)
IC50 (Vero): 0.8 µg/mL (≈ 1.38 µM)
IC50 (Plasmodium falciparum): 0.2 µg/mL (≈ 0.346 µM)
IC50 [1]: 1.7 µg/mL (≈ 2.94 µM)
IC50 (NCI-H187): 0.16 µg/mL (≈ 0.277 µM)
